Data taken from PubChem BioAssay AID1963848 (Molecular Pharmacology Branch, DTP, NCI, 2024).

Tested on: 379773-124-R-J2-PDC spheroid viability
Experiment: Anticancer human tumor 379773-124-R-J2-PDC patient-derived endometrial carcinoma cell line growth inhibition [POLQ]
Conditions: spheroids with HUVEC and MSC; for IC50: curve of first compound; for viability, T/C: stronger effect = lower value
Summary of the method: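 Three-cell-type spheroids modelling solid tumor plus stroma served as the readout system; POL inhibitors were tested individually and in combination, concentration ranges set by clinical Cmax where known.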

[1] = second compound 0.0316 µM, first compound 0.0316 µM
[2] = second compound 0.0316 µM, first compound 0.1 µM
[3] = second compound 0.0316 µM, first compound 0.316 µM
[4] = second compound 0.0316 µM, first compound 1 µM
[5] = second compound 0.1 µM, first compound 0.0316 µM
[6] = second compound 0.1 µM, first compound 0.1 µM
[7] = second compound 0.1 µM, first compound 0.316 µM
[8] = second compound 0.1 µM, first compound 1 µM
[9] = second compound 0.316 µM, first compound 0.0316 µM
[10] = second compound 0.316 µM, first compound 0.1 µM
[11] = second compound 0.316 µM, first compound 0.316 µM
[12] = second compound 0.316 µM, first compound 1 µM
[13] = second compound 1 µM, first compound 0.0316 µM
[14] = second compound 1 µM, first compound 0.1 µM
[15] = second compound 1 µM, first compound 0.316 µM
[16] = second compound 1 µM, first compound 1 µM
[17] = second compound 3.16 µM, first compound 0.0316 µM
[18] = second compound 3.16 µM, first compound 0.1 µM
[19] = second compound 3.16 µM, first compound 0.316 µM
[20] = second compound 3.16 µM, first compound 1 µM
[21] = second compound 10 µM, first compound 0.0316 µM
[22] = second compound 10 µM, first compound 0.1 µM
[23] = second compound 10 µM, first compound 0.316 µM
[24] = second compound 10 µM, first compound 1 µM
[25] = second compound 0.0316 µM, first compound 3.16 µM
[26] = second compound 0.0316 µM, first compound 10 µM
[27] = second compound 0.1 µM, first compound 3.16 µM
[28] = second compound 0.1 µM, first compound 10 µM
[29] = second compound 0.316 µM, first compound 3.16 µM
[30] = second compound 0.316 µM, first compound 10 µM
[31] = second compound 1 µM, first compound 3.16 µM
[32] = second compound 1 µM, first compound 10 µM
[33] = second compound 3.16 µM, first compound 3.16 µM
[34] = second compound 3.16 µM, first compound 10 µM
[35] = second compound 10 µM, first compound 3.16 µM
[36] = second compound 10 µM, first compound 10 µM
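Further: spheroids exposed to drugs for seven days before readout.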
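Wherever viability, T/C is given: percent viability relative to DMSO vehicle control taken as 100%.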

CCc1c2c(nc3ccc(O)cc13)-c1cc3c(c(=O)n1C2)COC(=O)[C@]3(O)CC + COC1C(OC(N)=O)C(O)C(Oc2ccc3c(O)c(NC(=O)c4ccc(O)c(CC=C(C)C)c4)c(=O)oc3c2C)OC1(C)C
IC50 (second compound 0.0316 µM): < 3.16 nM
IC50 (second compound 0.1 µM): < 3.16 nM
IC50 (second compound 0.316 µM): < 3.16 nM
IC50 (second compound 1 µM): < 3.16 nM
IC50 (second compound 3.16 µM): < 3.16 nM
IC50 (second compound 10 µM): < 3.16 nM
viability, T/C (second compound 0.0316 µM, first compound 0.00316 µM): 42.4%
viability, T/C (second compound 0.0316 µM, first compound 0.01 µM): 8.01%
viability, T/C [1]: 6.39%
viability, T/C [2]: 2.16%
viability, T/C [3]: 1.05%
viability, T/C [4]: 0.62%
viability, T/C (second compound 0.1 µM, first compound 0.00316 µM): 49.5%
viability, T/C (second compound 0.1 µM, first compound 0.01 µM): 11.7%
viability, T/C [5]: 5.4%
viability, T/C [6]: 1.94%
viability, T/C [7]: 0.57%
viability, T/C [8]: 1.04%
viability, T/C (second compound 0.316 µM, first compound 0.00316 µM): 45.1%
viability, T/C (second compound 0.316 µM, first compound 0.01 µM): 8.27%
viability, T/C [9]: 5.04%
viability, T/C [10]: 2.09%
viability, T/C [11]: 2.43%
viability, T/C [12]: 0.41%
viability, T/C (second compound 1 µM, first compound 0.00316 µM): 40%
viability, T/C (second compound 1 µM, first compound 0.01 µM): 9.16%
viability, T/C [13]: 5.09%
viability, T/C [14]: 1.92%
viability, T/C [15]: 0.94%
viability, T/C [16]: 0.31%
viability, T/C (second compound 3.16 µM, first compound 0.00316 µM): 41.8%
viability, T/C (second compound 3.16 µM, first compound 0.01 µM): 9.15%
viability, T/C [17]: 5.39%
viability, T/C [18]: 2.03%
viability, T/C [19]: 0.93%
viability, T/C [20]: 0.3%
viability, T/C (second compound 10 µM, first compound 0.00316 µM): 41.5%
viability, T/C (second compound 10 µM, first compound 0.01 µM): 7.13%
viability, T/C [21]: 6.51%
viability, T/C [22]: 1.69%
viability, T/C [23]: 1.78%
viability, T/C [24]: 0.49%

COc1cc(C2c3cc4c(cc3C(OC3OC5COC(C)OC5C(O)C3O)C3COC(=O)C23)OCO4)cc(OC)c1O (stereo unspecified) + COC1C(OC(N)=O)C(O)C(Oc2ccc3c(O)c(NC(=O)c4ccc(O)c(CC=C(C)C)c4)c(=O)oc3c2C)OC1(C)C
IC50 (second compound 0.0316 µM): 1190 nM
IC50 (second compound 0.1 µM): 1510 nM
IC50 (second compound 0.316 µM): 1490 nM
IC50 (second compound 1 µM): 1370 nM
IC50 (second compound 3.16 µM): 1370 nM
IC50 (second compound 10 µM): 1190 nM
viability, T/C [1]: 97.5%
viability, T/C [2]: 82.6%
viability, T/C [3]: 86.2%
viability, T/C [4]: 56.9%
viability, T/C [25]: 13.8%
viability, T/C [26]: 9.47%
viability, T/C [5]: 95.5%
viability, T/C [6]: 80.6%
viability, T/C [7]: 80%
viability, T/C [8]: 70.5%
viability, T/C [27]: 13%
viability, T/C [28]: 10.2%
viability, T/C [9]: 95.8%
viability, T/C [10]: 80.9%
viability, T/C [11]: 81.3%
viability, T/C [12]: 70.5%
viability, T/C [29]: 11.1%
viability, T/C [30]: 9.75%
viability, T/C [13]: 93.1%
viability, T/C [14]: 94.6%
viability, T/C [15]: 81.6%
viability, T/C [16]: 64.8%
viability, T/C [31]: 12.2%
viability, T/C [32]: 9.19%
viability, T/C [17]: 76.1%
viability, T/C [18]: 84.7%
viability, T/C [19]: 83%
viability, T/C [20]: 64%
viability, T/C [33]: 12.9%
viability, T/C [34]: 8.54%
viability, T/C [21]: 85.2%
viability, T/C [22]: 84.4%
viability, T/C [23]: 89.3%
viability, T/C [24]: 56.3%
viability, T/C [35]: 14.1%
viability, T/C [36]: 9.29%

Nc1ccn(C2OC(CO)C(O)C2(F)F)c(=O)n1 (stereo unspecified) + COC1C(OC(N)=O)C(O)C(Oc2ccc3c(O)c(NC(=O)c4ccc(O)c(CC=C(C)C)c4)c(=O)oc3c2C)OC1(C)C
IC50 (second compound 0.0316 µM): < 31.6 nM
IC50 (second compound 0.1 µM): < 31.6 nM
IC50 (second compound 0.316 µM): < 31.6 nM
IC50 (second compound 1 µM): < 31.6 nM
IC50 (second compound 3.16 µM): < 31.6 nM
IC50 (second compound 10 µM): < 31.6 nM
viability, T/C [1]: 14.1%
viability, T/C [2]: 7.21%
viability, T/C [3]: 8.07%
viability, T/C [4]: 10.4%
viability, T/C [25]: 7.9%
viability, T/C [26]: 5.28%
viability, T/C [5]: 13.9%
viability, T/C [6]: 7.13%
viability, T/C [7]: 9.39%
viability, T/C [8]: 8.07%
viability, T/C [27]: 8.46%
viability, T/C [28]: 7.04%
viability, T/C [9]: 14.2%
viability, T/C [10]: 9.44%
viability, T/C [11]: 8.7%
viability, T/C [12]: 9.16%
viability, T/C [29]: 11.3%
viability, T/C [30]: 9.38%
viability, T/C [13]: 19.4%
viability, T/C [14]: 7.26%
viability, T/C [15]: 9.54%
viability, T/C [16]: 8.14%
viability, T/C [31]: 9.07%
viability, T/C [32]: 7.06%
viability, T/C [17]: 16.1%
viability, T/C [18]: 7.44%
viability, T/C [19]: 8.41%
viability, T/C [20]: 9.67%
viability, T/C [33]: 7.02%
viability, T/C [34]: 6.42%
viability, T/C [21]: 17.5%
viability, T/C [22]: 5.7%
viability, T/C [23]: 9.27%
viability, T/C [24]: 8.67%
viability, T/C [35]: 8.15%
viability, T/C [36]: 8.46%
